According to ChEMBL document CHEMBL4507301 (2021):

Assays:
[1] = tested on: Tyrosine-protein kinase ABL1 (Homo sapiens), P00519 [Q252H]; details: Compound concentration 1000.0 nM
[2] = tested on: Tyrosine-protein kinase ABL1 (Homo sapiens), P00519 [Y253F]; details: Compound concentration 1000.0 nM
[3] = molecular target: Mitogen-activated protein kinase kinase kinase 6 (Homo sapiens) (UniProt O95382); details: Compound concentration 1000.0 nM
[4] = molecular target: Aurora kinase C (Homo sapiens) (UniProt Q9UQB9); details: Compound concentration 1000.0 nM
[5] = tested on: Serine/threonine-protein kinase B-raf (Homo sapiens), P15056 [V600E]; details: Compound concentration 1000.0 nM
[6] = molecular target: Serine/threonine-protein kinase BRSK1 (Homo sapiens) (UniProt Q8TDC3); details: Compound concentration 1000.0 nM
[7] = molecular target: Cyclin-dependent kinase 11B (Homo sapiens) (UniProt P21127); details: Compound concentration 1000.0 nM
[8] = molecular target: Cyclin-dependent kinase 8 (Homo sapiens) (UniProt P49336); details: Compound concentration 1000.0 nM
[9] = molecular target: Dual specificity protein kinase CLK1 (Homo sapiens) (UniProt P49759); details: Compound concentration 1000.0 nM
[10] = molecular target: Dual specificity protein kinase CLK2 (Homo sapiens) (UniProt P49760); details: Compound concentration 1000.0 nM
[11] = molecular target: Casein kinase I isoform alpha-like (Homo sapiens) (UniProt Q8N752); details: Compound concentration 1000.0 nM
[12] = molecular target: Casein kinase I isoform gamma-2 (Homo sapiens) (UniProt P78368); details: Compound concentration 1000.0 nM
[13] = molecular target: Serine/threonine-protein kinase MRCK gamma (Homo sapiens) (UniProt Q6DT37); details: Compound concentration 1000.0 nM
[14] = tested on: Epidermal growth factor receptor (Homo sapiens), P00533 [G719S]; details: Compound concentration 1000.0 nM
[15] = tested on: Epidermal growth factor receptor (Homo sapiens), P00533 [UNDEFINED MUTATION]; details: Compound concentration 1000.0 nM
[16] = tested on: Epidermal growth factor receptor (Homo sapiens), P00533 [UNDEFINED MUTATION]; details: Compound concentration 1000.0 nM; remark: listed apart in the source
[17] = molecular target: Vascular endothelial growth factor receptor 3 (Homo sapiens) (UniProt P35916); details: Compound concentration 1000.0 nM
[18] = tested on: eIF-2-alpha kinase GCN2 (Homo sapiens), Q9P2K8 [S808G]; details: Compound concentration 1000.0 nM
[19] = molecular target: Rhodopsin kinase GRK1 (Homo sapiens) (UniProt Q15835); details: Compound concentration 1000.0 nM
[20] = molecular target: Inhibitor of nuclear factor kappa-B kinase subunit beta (Homo sapiens) (UniProt O14920); details: Compound concentration 1000.0 nM
[21] = molecular target: Inhibitor of nuclear factor kappa-B kinase subunit epsilon (Homo sapiens) (UniProt Q14164); details: Compound concentration 1000.0 nM
[22] = molecular target: Tyrosine-protein kinase JAK3 (Homo sapiens) (UniProt P52333); details: Compound concentration 1000.0 nM
[23] = tested on: Mast/stem cell growth factor receptor Kit (Homo sapiens), P10721 [V559D,V654A]; details: Compound concentration 1000.0 nM
[24] = molecular target: Serine/threonine-protein kinase STK11 (Homo sapiens) (UniProt Q15831); details: Compound concentration 1000.0 nM
[25] = molecular target: Serine/threonine-protein kinase 10 (Homo sapiens) (UniProt O94804); details: Compound concentration 1000.0 nM
[26] = molecular target: Mitogen-activated protein kinase kinase kinase kinase 4 (Homo sapiens) (UniProt O95819); details: Compound concentration 1000.0 nM
[27] = molecular target: Serine/threonine-protein kinase MARK2 (Homo sapiens) (UniProt Q7KZI7); details: Compound concentration 1000.0 nM
[28] = molecular target: Dual specificity mitogen-activated protein kinase kinase 6 (Homo sapiens) (UniProt P52564); details: Compound concentration 1000.0 nM
[29] = molecular target: Mitogen-activated protein kinase kinase kinase 10 (Homo sapiens) (UniProt Q02779); details: Compound concentration 1000.0 nM
[30] = molecular target: Myosin light chain kinase family member 4 (Homo sapiens) (UniProt Q86YV6); details: Compound concentration 1000.0 nM
[31] = molecular target: Serine/threonine-protein kinase Nek10 (Homo sapiens) (UniProt Q6ZWH5); details: Compound concentration 1000.0 nM
[32] = molecular target: Cyclin-dependent kinase 2 homolog (Plasmodium falciparum (isolate 3D7)) (UniProt P61075); details: Compound concentration 1000.0 nM
[33] = molecular target: Serine/threonine-protein kinase PknB (Mycobacterium tuberculosis) (UniProt P9WI81); details: Compound concentration 1000.0 nM
[34] = molecular target: Proto-oncogene tyrosine-protein kinase receptor Ret (Homo sapiens) (UniProt P07949); details: Compound concentration 1000.0 nM
[35] = molecular target: Serine/threonine-protein kinase Sgk2 (Homo sapiens) (UniProt Q9HBY8); details: Compound concentration 1000.0 nM
[36] = molecular target: STE20-like serine/threonine-protein kinase (Homo sapiens) (UniProt Q9H2G2); details: Compound concentration 1000.0 nM
[37] = molecular target: SRSF protein kinase 1 (Homo sapiens) (UniProt Q96SB4); details: Compound concentration 1000.0 nM
[38] = molecular target: Non-receptor tyrosine-protein kinase TNK1 (Homo sapiens) (UniProt Q13470); details: Compound concentration 1000.0 nM
[39] = molecular target: Non-receptor tyrosine-protein kinase TYK2 (Homo sapiens) (UniProt P29597); details: Compound concentration 1000.0 nM
[40] = molecular target: Serine/threonine-protein kinase ULK2 (Homo sapiens) (UniProt Q8IYT8); details: Compound concentration 1000.0 nM
[41] = molecular target: Vascular endothelial growth factor receptor 2 (Homo sapiens) (UniProt P35968); details: Compound concentration 1000.0 nM
[42] = molecular target: Serine/threonine-protein kinase WNK1 (Homo sapiens) (UniProt Q9H4A3); details: Compound concentration 1000.0 nM
[43] = molecular target: Mitogen-activated protein kinase kinase kinase 19 (Homo sapiens) (UniProt Q56UN5); details: Compound concentration 1000.0 nM
[44] = molecular target: 5-hydroxytryptamine receptor 1D (Homo sapiens) (UniProt P28221); details: Compound concentration 10.0 uM
[45] = molecular target: D(1A) dopamine receptor (Homo sapiens) (UniProt P21728); details: Compound concentration 10.0 uM

Sequence of SRSF protein kinase 1 (Homo sapiens) (Q96SB4 whole entry): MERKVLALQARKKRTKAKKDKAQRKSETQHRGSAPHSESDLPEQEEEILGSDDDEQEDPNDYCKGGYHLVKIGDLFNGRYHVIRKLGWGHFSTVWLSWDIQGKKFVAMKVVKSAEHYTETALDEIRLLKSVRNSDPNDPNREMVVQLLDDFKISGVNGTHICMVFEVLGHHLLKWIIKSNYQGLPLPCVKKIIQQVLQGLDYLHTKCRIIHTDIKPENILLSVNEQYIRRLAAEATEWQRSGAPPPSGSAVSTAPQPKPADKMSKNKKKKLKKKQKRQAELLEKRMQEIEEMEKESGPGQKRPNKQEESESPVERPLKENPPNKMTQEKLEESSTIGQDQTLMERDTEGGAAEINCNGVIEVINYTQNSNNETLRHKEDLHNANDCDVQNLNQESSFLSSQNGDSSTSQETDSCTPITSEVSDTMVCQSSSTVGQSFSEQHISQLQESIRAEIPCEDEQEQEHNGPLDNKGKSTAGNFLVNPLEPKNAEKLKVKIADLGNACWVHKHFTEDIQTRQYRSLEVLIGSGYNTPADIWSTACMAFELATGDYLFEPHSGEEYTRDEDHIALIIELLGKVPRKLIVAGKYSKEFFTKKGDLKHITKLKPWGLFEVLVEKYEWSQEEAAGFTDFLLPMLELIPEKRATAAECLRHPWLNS
Sequence of Tyrosine-protein kinase JAK3 (Homo sapiens) (P52333 whole entry): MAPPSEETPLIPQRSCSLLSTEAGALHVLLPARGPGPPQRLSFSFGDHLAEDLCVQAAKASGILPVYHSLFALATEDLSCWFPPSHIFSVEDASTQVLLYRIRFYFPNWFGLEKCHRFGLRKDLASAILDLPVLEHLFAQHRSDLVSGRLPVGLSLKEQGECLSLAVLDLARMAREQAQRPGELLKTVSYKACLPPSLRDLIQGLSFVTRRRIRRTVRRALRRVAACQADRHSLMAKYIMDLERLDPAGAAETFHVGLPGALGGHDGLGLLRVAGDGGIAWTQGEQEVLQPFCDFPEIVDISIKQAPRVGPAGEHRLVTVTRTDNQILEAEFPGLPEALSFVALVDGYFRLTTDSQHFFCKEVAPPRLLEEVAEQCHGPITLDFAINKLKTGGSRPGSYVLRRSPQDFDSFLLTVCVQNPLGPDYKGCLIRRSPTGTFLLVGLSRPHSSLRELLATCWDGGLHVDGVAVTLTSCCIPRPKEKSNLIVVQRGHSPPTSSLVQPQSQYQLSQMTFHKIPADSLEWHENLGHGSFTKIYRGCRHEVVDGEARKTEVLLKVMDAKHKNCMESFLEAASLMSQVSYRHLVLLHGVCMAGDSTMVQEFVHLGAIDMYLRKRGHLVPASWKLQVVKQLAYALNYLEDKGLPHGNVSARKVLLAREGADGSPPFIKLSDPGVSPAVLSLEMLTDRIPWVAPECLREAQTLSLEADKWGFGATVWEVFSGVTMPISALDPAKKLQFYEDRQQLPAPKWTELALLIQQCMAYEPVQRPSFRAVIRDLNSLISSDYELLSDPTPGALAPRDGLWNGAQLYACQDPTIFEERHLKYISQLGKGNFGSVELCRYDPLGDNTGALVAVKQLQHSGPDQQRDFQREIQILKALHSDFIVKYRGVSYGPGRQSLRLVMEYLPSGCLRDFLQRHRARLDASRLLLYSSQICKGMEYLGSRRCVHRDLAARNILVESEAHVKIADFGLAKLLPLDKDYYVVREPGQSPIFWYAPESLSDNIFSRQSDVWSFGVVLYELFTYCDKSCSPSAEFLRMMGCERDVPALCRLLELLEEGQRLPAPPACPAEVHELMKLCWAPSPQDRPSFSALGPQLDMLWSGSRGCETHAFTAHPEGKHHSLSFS
Sequence of Non-receptor tyrosine-protein kinase TNK1 (Homo sapiens) (Q13470 whole entry): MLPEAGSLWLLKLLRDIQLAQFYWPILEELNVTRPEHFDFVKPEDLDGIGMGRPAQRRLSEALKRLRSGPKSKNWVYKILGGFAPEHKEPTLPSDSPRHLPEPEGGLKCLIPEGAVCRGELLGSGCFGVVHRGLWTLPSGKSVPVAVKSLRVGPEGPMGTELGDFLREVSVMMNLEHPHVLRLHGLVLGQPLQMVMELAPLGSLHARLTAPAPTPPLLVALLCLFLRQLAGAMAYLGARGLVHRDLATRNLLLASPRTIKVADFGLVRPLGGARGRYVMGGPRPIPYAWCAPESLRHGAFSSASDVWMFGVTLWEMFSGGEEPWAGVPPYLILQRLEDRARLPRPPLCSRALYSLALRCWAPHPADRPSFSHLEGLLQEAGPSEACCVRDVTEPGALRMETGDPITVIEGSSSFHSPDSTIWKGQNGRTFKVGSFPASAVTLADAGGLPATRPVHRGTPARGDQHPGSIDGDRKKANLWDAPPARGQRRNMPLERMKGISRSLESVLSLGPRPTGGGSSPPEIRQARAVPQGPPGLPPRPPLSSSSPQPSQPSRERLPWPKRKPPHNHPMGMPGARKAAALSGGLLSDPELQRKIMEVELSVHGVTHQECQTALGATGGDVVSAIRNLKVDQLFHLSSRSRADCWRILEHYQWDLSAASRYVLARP
Sequence of Mitogen-activated protein kinase kinase kinase kinase 4 (Homo sapiens) (O95819 2-1239 limits assumed): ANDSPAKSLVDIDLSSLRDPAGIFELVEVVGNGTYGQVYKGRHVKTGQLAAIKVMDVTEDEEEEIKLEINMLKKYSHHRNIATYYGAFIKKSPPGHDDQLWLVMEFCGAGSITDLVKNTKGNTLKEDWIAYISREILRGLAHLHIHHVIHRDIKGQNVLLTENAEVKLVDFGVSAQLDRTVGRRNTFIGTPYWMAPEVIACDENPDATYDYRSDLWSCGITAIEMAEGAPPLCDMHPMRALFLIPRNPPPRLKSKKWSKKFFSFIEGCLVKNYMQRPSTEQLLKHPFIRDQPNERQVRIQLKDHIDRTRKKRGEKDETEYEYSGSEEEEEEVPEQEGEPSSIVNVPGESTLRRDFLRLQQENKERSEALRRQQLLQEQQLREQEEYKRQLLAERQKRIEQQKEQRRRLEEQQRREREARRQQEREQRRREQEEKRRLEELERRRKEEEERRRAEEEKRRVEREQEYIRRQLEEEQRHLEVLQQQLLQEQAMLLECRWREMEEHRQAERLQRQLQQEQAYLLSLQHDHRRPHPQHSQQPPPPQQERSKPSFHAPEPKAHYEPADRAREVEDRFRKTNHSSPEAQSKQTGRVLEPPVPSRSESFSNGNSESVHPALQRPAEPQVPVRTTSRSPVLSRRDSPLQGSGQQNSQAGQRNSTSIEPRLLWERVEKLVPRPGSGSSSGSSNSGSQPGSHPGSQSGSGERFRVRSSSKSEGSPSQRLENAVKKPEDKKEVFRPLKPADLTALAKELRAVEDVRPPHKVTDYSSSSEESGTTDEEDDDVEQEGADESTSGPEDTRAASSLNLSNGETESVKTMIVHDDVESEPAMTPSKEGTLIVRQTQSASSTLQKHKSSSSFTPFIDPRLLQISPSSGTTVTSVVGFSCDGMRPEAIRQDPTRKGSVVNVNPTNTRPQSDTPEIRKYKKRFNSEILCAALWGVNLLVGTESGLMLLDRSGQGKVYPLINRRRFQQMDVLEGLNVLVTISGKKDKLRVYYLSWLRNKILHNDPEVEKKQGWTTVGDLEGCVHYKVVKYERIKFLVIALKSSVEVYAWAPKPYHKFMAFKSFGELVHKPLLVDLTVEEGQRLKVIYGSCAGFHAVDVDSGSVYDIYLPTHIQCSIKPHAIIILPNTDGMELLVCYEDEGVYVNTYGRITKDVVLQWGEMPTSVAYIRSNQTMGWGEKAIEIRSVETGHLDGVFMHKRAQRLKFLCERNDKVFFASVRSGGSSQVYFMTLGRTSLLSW
Sequence of Myosin light chain kinase family member 4 (Homo sapiens) (Q86YV6 whole entry): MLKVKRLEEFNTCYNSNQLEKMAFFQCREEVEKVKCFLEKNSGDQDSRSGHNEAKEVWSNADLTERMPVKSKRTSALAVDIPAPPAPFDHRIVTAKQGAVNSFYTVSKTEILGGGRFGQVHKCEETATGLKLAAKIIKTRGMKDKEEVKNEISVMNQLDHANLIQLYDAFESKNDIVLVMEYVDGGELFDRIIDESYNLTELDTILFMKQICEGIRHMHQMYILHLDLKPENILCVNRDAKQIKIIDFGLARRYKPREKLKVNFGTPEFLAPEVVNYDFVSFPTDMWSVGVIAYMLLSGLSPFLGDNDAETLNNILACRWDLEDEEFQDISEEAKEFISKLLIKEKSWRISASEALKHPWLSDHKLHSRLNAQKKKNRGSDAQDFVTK
Sequence of Serine/threonine-protein kinase STK11 (Homo sapiens) (Q15831 whole entry): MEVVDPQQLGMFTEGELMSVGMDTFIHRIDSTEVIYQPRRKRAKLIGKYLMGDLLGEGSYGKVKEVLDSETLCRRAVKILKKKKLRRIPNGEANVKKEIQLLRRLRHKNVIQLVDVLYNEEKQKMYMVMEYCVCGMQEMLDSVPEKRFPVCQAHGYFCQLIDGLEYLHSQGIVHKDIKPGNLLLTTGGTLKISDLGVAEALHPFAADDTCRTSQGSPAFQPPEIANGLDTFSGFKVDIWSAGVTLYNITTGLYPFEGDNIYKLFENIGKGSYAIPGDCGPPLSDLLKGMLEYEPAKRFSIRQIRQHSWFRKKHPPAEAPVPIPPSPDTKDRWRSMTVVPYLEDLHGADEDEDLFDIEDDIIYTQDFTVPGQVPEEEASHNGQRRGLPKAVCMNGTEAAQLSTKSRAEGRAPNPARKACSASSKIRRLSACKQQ
Sequence of Rhodopsin kinase GRK1 (Homo sapiens) (Q15835 whole entry): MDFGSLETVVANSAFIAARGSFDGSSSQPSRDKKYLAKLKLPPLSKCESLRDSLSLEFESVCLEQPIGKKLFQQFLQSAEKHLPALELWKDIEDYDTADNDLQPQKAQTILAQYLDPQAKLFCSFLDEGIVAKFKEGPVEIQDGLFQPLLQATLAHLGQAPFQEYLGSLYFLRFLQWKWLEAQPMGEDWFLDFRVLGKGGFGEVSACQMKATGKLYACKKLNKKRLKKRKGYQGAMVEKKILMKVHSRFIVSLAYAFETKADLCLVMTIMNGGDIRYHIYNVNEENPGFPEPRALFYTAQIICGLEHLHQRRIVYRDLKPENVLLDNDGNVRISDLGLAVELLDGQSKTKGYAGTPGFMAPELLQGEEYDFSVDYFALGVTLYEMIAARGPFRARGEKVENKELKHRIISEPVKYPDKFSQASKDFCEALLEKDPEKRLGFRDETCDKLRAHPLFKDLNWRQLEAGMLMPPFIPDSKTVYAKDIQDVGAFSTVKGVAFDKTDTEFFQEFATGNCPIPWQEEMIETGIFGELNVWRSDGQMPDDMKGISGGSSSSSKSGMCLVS

In the case of `C[C@H](c1cccc(C#N)c1)n1cc(Cl)cc(C(N)=O)c1=N` [(R)-9s], the residual activity [1] is reported as 100%, the residual activity [2] is reported as 88% and the residual activity [3] is reported as 91%. For the same compound, the residual activity [4] was 91%, the residual activity [5] was 100% and the residual activity [6] was 68%. It also gave a residual activity [7] of 86%, a residual activity [8] of 100% and a residual activity [9] of 100%. For the same compound, the residual activity [10] was 100%, the residual activity [11] was 92% and the residual activity [12] was 99%. For the same compound, the residual activity [13] was 77%, the residual activity [14] was 100% and the residual activity [15] was 97%. The residual activity [16] was 99%, the residual activity [17] was 80% and the residual activity [18] was 45%. The residual activity [19] was 74%, the residual activity [20] was 100% and the residual activity [21] was 82%. The residual activity [22] was 94%, the residual activity [23] was 96% and the residual activity [24] was 96%. It also gave a residual activity [25] of 100%, a residual activity [26] of 100% and a residual activity [27] of 100%. For the same compound, the residual activity [28] was 100%, the residual activity [29] was 100% and the residual activity [30] was 100%. The residual activity [31] was 99%, the residual activity [32] was 100% and the residual activity [33] was 89%. It also gave a residual activity [34] of 94%, a residual activity [35] of 100% and a residual activity [36] of 100%. The residual activity [37] was 96%, the residual activity [38] was 77% and the residual activity [39] was 100%. The residual activity [40] was 71%, the residual activity [41] was 88% and the residual activity [42] was 89%. It also gave a residual activity [43] of 76%, an inhibition [44] of 34.1% and an inhibition [45] of 1.16%.
`C[C@@H](c1cccc(C#N)c1)n1cc(Cl)cc(C(N)=O)c1=N` [(S)-9s] gave a residual activity [1] of 68%, a residual activity [2] of 85% and a residual activity [3] of 79%. It also gave a residual activity [4] of 96%, a residual activity [5] of 95% and a residual activity [6] of 93%. It also gave a residual activity [7] of 86%, a residual activity [8] of 92% and a residual activity [9] of 100%. It also gave a residual activity [10] of 100%, a residual activity [11] of 82% and a residual activity [12] of 100%. The residual activity [13] was 100%, the residual activity [14] was 100% and the residual activity [15] was 90%. The residual activity [16] was 100%, the residual activity [17] was 89% and the residual activity [18] was 50%. For the same compound, the residual activity [19] was 75%, the residual activity [20] was 100% and the residual activity [21] was 56%. It also gave a residual activity [22] of 100%, a residual activity [23] of 99% and a residual activity [24] of 74%. For the same compound, the residual activity [25] was 86%, the residual activity [26] was 89% and the residual activity [27] was 100%. It also gave a residual activity [28] of 100%, a residual activity [29] of 77% and a residual activity [30] of 100%. The residual activity [31] was 91%, the residual activity [32] was 100% and the residual activity [33] was 100%. For the same compound, the residual activity [34] was 100%, the residual activity [35] was 91% and the residual activity [36] was 88%. It also gave a residual activity [37] of 100%, a residual activity [38] of 94% and a residual activity [39] of 100%. The residual activity [40] was 89%, the residual activity [41] was 73% and the residual activity [42] was 97%. It also gave a residual activity [43] of 94%, an inhibition [44] of 3.77% and an inhibition [45] of -6.15%.
